According to ChEMBL document CHEMBL1146197, “Evolution of TEM-type enzymes: biochemical and genetic characterization of two new complex mutant TEM enzymes, TEM-151 and TEM-152, from a single patient” (Antimicrob Agents Chemother, 2007):
In brackets after ≈: the same amount, converted by molar mass.

Experiments:
Escherichia coli [1] = experiment: Activity of Escherichia coli BL21(DE3) beta-lactamase TEM152
Escherichia coli [2] = experiment: Antimicrobial activity against recombinant Escherichia coli DH5-alpha isolate expressing pBK-TEM-1 and TEM1 by disk diffusion assay; format: functional; conditions: DH5alpha
Escherichia coli [3] = experiment: Antimicrobial activity against Escherichia coli DH5-alpha isolate expressing pBK-CMV by […]; format: functional; conditions: DH5alpha
Escherichia coli [4] = experiment: Antimicrobial activity against recombinant Escherichia coli DH5-alpha isolate expressing pBK-TEM-28 and ESBL by disk diffusion assay; format: functional; conditions: DH5alpha
Escherichia coli [5] = experiment: microbe, parasite or virus in culture; format: functional; conditions: DH5alpha
Escherichia coli [6] = experiment: Antimicrobial activity against recombinant Escherichia coli DH5-alpha isolate expressing pBK-TEM-36 and IRT by disk diffusion assay; format: functional; conditions: DH5alpha
Escherichia coli [7] = experiment: Antimicrobial activity against Escherichia coli DH5-alpha TC1179 isolate expressing TEM-1 by […]; format: functional; conditions: DH5alpha
Escherichia coli [8] = experiment: Activity of Escherichia coli BL21(DE3) beta-lactamase TEM28
Escherichia coli [9] = experiment: Antimicrobial activity against recombinant Escherichia coli DH5-alpha isolate expressing pBK-TEM-29 and ESBL by disk diffusion assay; format: functional; conditions: DH5alpha
Escherichia coli [10] = experiment: Activity of Escherichia coli BL21(DE3) beta-lactamase TEM36
Escherichia coli [11] = experiment: Activity of Escherichia coli BL21(DE3) beta-lactamase TEM151
Escherichia coli [12] = experiment: Antimicrobial activity against Escherichia coli DH5-alpha CF1179 isolate expressing CMT and TEM1 by […]; format: functional; conditions: DH5alpha
Escherichia coli [13] = experiment: Antimicrobial activity against Escherichia coli DH5-alpha TC1295 isolate expressing TEM-1 by […]; format: functional; conditions: DH5alpha
Escherichia coli [14] = experiment: Activity of Escherichia coli BL21(DE3) beta-lactamase TEM29
Escherichia coli [15] = experiment: Activity of Escherichia coli BL21(DE3) beta-lactamase TEM1
Escherichia coli [16] = experiment: Antimicrobial activity against Escherichia coli DH5-alpha CF1295 isolate expressing CMT and TEM1 by […]; format: functional; conditions: DH5alpha
Escherichia coli [17] = experiment: microbe, parasite or virus in culture; format: functional; conditions: DH5alpha; remark: listed apart in the source

Row | Compound | Km (Escherichia coli [1]) [µM] | kcat (Escherichia coli [1]) [s⁻¹] | kcat/Km (Escherichia coli [1]) [M⁻¹ s⁻¹] | MIC (Escherichia coli [2]) [µg/mL] | MIC (Escherichia coli [3]) [µg/mL] | MIC (Escherichia coli [4]) [µg/mL] | MIC (Escherichia coli [5]) [µg/mL] | MIC (Escherichia coli [6]) [µg/mL] | MIC (Escherichia coli [7]) [µg/mL] | Km (Escherichia coli [8]) [µM] | kcat (Escherichia coli [8]) [s⁻¹] | kcat/Km (Escherichia coli [8]) [M⁻¹ s⁻¹] | MIC (Escherichia coli [9]) [µg/mL] | kcat (Escherichia coli [10]) [s⁻¹] | Km (Escherichia coli [11]) [µM] | kcat (Escherichia coli [11]) [s⁻¹] | kcat/Km (Escherichia coli [11]) [M⁻¹ s⁻¹] | MIC (Escherichia coli [12]) [µg/mL] | MIC (Escherichia coli [13]) [µg/mL] | Km (Escherichia coli [14]) [µM] | other results
1 | CO/N=C(\C(=O)N[C@@H]1C(=O)N2C(C(=O)[O-])=C(C[N+]3(C)CCCC3)CS[C@H]12)c1csc(N)n1 | 45 | 2.8 | 60000 | < 0.06 | < 0.06 | 16 | 16 (≈ 33.3 µM) | 0.12 | < 0.06 | 72 | 8 | 110000 | 4 | < 0.1 | 126 | 2.5 | 20000 | 2 (≈ 4.16 µM) | < 0.06 | 145 | kcat (Escherichia coli [14]): 17 s⁻¹; kcat/Km (Escherichia coli [14]): 110000 M⁻¹ s⁻¹; kcat (Escherichia coli [15]): < 0.1 s⁻¹
2 | C[C@H]1[C@H](NC(=O)/C(=N\OC(C)(C)C(=O)O)c2csc(N)n2)C(=O)N1S(=O)(=O)O (stereo in doubt) [AZTREONAM] | 22 | 3.5 | 160000 | – | – | – | 64 (≈ 147 µM) | – | – | 75 | 43 | 570000 | 4 | < 0.1 | 83 | 8.3 | 100000 | > 2050 | – | 34 | MIC (Escherichia coli [16]): 8 µg/mL (≈ 18.4 µM); MIC (Escherichia coli [17]): 2 µg/mL (≈ 4.59 µM); kcat (Escherichia coli [14]): 2.1 s⁻¹; kcat/Km (Escherichia coli [14]): 60000 M⁻¹ s⁻¹; kcat (Escherichia coli [15]): < 0.1 s⁻¹
3 | CC1(C)S[C@@H]2[C@H](NC(=O)[C@H](N)c3ccc(O)cc3)C(=O)N2[C@H]1C(=O)O [AMOXICILLIN] | 48 | 258 | 5.4e+06 | > 2050 | 4 (≈ 10.9 µM) | > 2050 | > 2050 | > 2050 | > 2050 | 12 | 88 | 7.3e+06 | > 2050 | 624 | 40 | 149 | 3.7e+06 | > 2050 | > 2050 | 26 | MIC (Escherichia coli [16]): > 2050 µg/mL; MIC (Escherichia coli [17]): > 2050 µg/mL; Km (Escherichia coli [10]): 114 µM; kcat/Km (Escherichia coli [10]): 5.5e+06 M⁻¹ s⁻¹; kcat (Escherichia coli [14]): 91 s⁻¹; kcat/Km (Escherichia coli [14]): 3.5e+06 M⁻¹ s⁻¹; Km (Escherichia coli [15]): 15 µM; kcat (Escherichia coli [15]): 1120 s⁻¹; kcat/Km (Escherichia coli [15]): 7.5e+07 M⁻¹ s⁻¹
4 | CO/N=C(\C(=O)N[C@@H]1C(=O)N2C(C(=O)O)=C(COC(C)=O)CS[C@H]12)c1csc(N)n1 [CEFOTAXIME] | 34 | 1 | 30000 | 0.06 | 0.02 (≈ 0.0439 µM) | 4 | 0.25 (≈ 0.549 µM) | 0.06 | 0.02 (≈ 0.0439 µM) | 50 | 9 | 180000 | 0.5 | < 0.1 | 304 | 5 | 20000 | 0.12 (≈ 0.263 µM) | 0.02 (≈ 0.0439 µM) | 345 | MIC (Escherichia coli [16]): 0.12 µg/mL (≈ 0.263 µM); MIC (Escherichia coli [17]): 0.06 µg/mL (≈ 0.132 µM); kcat (Escherichia coli [14]): 14 s⁻¹; kcat/Km (Escherichia coli [14]): 40000 M⁻¹ s⁻¹; kcat (Escherichia coli [15]): < 0.1 s⁻¹
5 | CO[C@@]1(NC(=O)Cc2cccs2)C(=O)N2C(C(=O)O)=C(COC(N)=O)CS[C@@H]21 [CEFOXITIN] | – | – | – | 4 | 4 (≈ 9.36 µM) | 8 | 8 (≈ 18.7 µM) | 8 | 4 (≈ 9.36 µM) | – | – | – | 16 | – | – | – | – | 8 (≈ 18.7 µM) | 4 (≈ 9.36 µM) | – | MIC (Escherichia coli [16]): 8 µg/mL (≈ 18.7 µM); MIC (Escherichia coli [17]): 8 µg/mL (≈ 18.7 µM)
6 | CC(C)(O/N=C(\C(=O)N[C@@H]1C(=O)N2C(C(=O)[O-])=C(C[n+]3ccccc3)CS[C@H]12)c1csc(N)n1)C(=O)O [CEFTAZIDIME] | 230 | 16 | 70000 | 0.12 | 0.12 (≈ 0.22 µM) | 512 | 512 (≈ 937 µM) | 0.25 | 0.12 (≈ 0.22 µM) | 240 | 64 | 270000 | 32 | < 0.1 | 250 | 5 | 20000 | 64 (≈ 117 µM) | 0.12 (≈ 0.22 µM) | 215 | MIC (Escherichia coli [16]): 4 µg/mL (≈ 7.32 µM); MIC (Escherichia coli [17]): 8 µg/mL (≈ 14.6 µM); kcat (Escherichia coli [14]): 10 s⁻¹; kcat/Km (Escherichia coli [14]): 50000 M⁻¹ s⁻¹; kcat (Escherichia coli [15]): < 0.1 s⁻¹
